Measurements as given in patent publication US10173971B2, “Picolinamides with fungicidal activity” (DOW AGROSCIENCES LLC, priority 2014, dated 2019).
Where two headings read alike, the source gives them in different places.

Legend:
Zymoseptoria tritici = assay: Fungicidal activity: leaf blotch of wheat (SEPTTR), wheat seedlings, booth sprayer to run-off or track spray; type: in vivo; conditions: Low-Volume Cereal Activity at 121.5 g/H
Puccinia triticina = assay: Fungicidal activity: wheat brown rust (PUCCRT), wheat seedlings, booth sprayer to run-off or track spray; type: in vivo; conditions: Low-Volume Cereal Activity at 121.5 g/H
[1] = 24 h, 1 Day Protectant, read-out: SEPTTR 1DP
[2] = 72 h, 3 Day Curative, read-out: SEPTTR 3DC
[3] = 24 h, 1 Day Protectant, read-out: PUCCRT 1DP
[4] = 72 h, 3 Day Curative, read-out: PUCCRT 3DC

Structure (SMILES)	pest or weed control at 121.5 g/ha (Zymoseptoria tritici; [1]) [%]	pest or weed control at 121.5 g/ha (Zymoseptoria tritici; [2]) [%]	pest or weed control at 121.5 g/ha (Puccinia triticina; [3]) [%]	pest or weed control at 121.5 g/ha (Puccinia triticina; [4]) [%]
CCCC[C@H](c1ccccc1)[C@H](C)OC(=O)[C@H](C)NC(=O)c1nccc(OC)c1OCOC(=O)C(C)C [compound 200]	80 to 100	80 to 100	80 to 100	80 to 100
COc1ccnc(C(=O)N[C@@H](C)C(=O)O[C@@H](C)[C@H](Cc2ccc(Cl)cc2)c2ccccc2)c1OC(C)=O [compound 201]	80 to 100	0 to 80	0 to 80	0 to 80
COc1ccnc(C(=O)N[C@@H](C)C(=O)O[C@@H](C)[C@H](Cc2ccc(Cl)cc2)c2ccccc2)c1OC(=O)C(C)C [compound 202]	80 to 100	80 to 100	0 to 80	0 to 80
COc1ccnc(C(=O)N[C@@H](C)C(=O)O[C@@H](C)[C@H](Cc2ccc(Cl)cc2)c2ccccc2)c1OCOC(C)=O [compound 203]	80 to 100	80 to 100	80 to 100	0 to 80
COc1ccnc(C(=O)N[C@@H](C)C(=O)O[C@@H](C)[C@H](Cc2ccc(Cl)cc2)c2ccccc2)c1OCOC(=O)C(C)C [compound 204]	80 to 100	80 to 100	0 to 80	0 to 80
COc1ccnc(C(=O)N[C@@H](C)C(=O)O[C@@H](C)[C@H](Cc2ccccc2)C(C)C)c1OC(C)=O [compound 205]	80 to 100	80 to 100	80 to 100	80 to 100
COc1ccnc(C(=O)N[C@@H](C)C(=O)O[C@@H](C)[C@H](Cc2ccccc2)C(C)C)c1OCOC(C)=O [compound 206]	80 to 100	80 to 100	80 to 100	80 to 100
CCCOC(C)(C)[C@@H](Cc1ccccc1)[C@H](C)OC(=O)[C@H](C)NC(=O)c1nccc(OC)c1OCOC(C)=O [compound 207]	80 to 100	80 to 100	80 to 100	80 to 100
COc1ccnc(C(=O)N[C@@H](C)C(=O)O[C@@H](C)[C@@H](COc2ccccc2)Cc2ccccc2)c1OCOC(C)=O [compound 208]	80 to 100	0 to 80	80 to 100	0 to 80
COc1ccnc(C(=O)N[C@@H](C)C(=O)O[C@@H](C)[C@@H](COc2ccc(Cl)cc2Cl)Cc2ccccc2)c1OCOC(C)=O [compound 209]	0 to 80	0 to 80	0 to 80	
COc1ccnc(C(=O)N[C@@H](C)C(=O)O[C@@H](C)[C@H](CCC(C)C)c2ccccc2)c1OC(C)=O [compound 210]	80 to 100	80 to 100	80 to 100	0 to 80
COc1ccnc(C(=O)N[C@@H](C)C(=O)O[C@@H](C)[C@H](CCC(C)C)c2ccccc2)c1OC(=O)C(C)C [compound 211]	80 to 100	80 to 100	0 to 80	
COCCC(=O)Oc1c(OC)ccnc1C(=O)N[C@@H](C)C(=O)O[C@@H](C)[C@H](CCC(C)C)c1ccccc1 [compound 212]	80 to 100	80 to 100	80 to 100	80 to 100
COc1ccnc(C(=O)N[C@@H](C)C(=O)O[C@@H](C)[C@H](CCC(C)C)c2ccccc2)c1OCOC(C)=O [compound 213]	80 to 100	80 to 100	80 to 100	80 to 100
COc1ccnc(C(=O)N[C@@H](C)C(=O)O[C@@H](C)[C@H](CCC(C)C)c2ccccc2)c1OCOC(=O)C(C)C [compound 214]	80 to 100	80 to 100	80 to 100	80 to 100
CCOCC(=O)OCOc1c(OC)ccnc1C(=O)N[C@@H](C)C(=O)O[C@@H](C)[C@H](CCC(C)C)c1ccccc1 [compound 215]	80 to 100	80 to 100	80 to 100	80 to 100
COc1ccnc(C(=O)N[C@@H](C)C(=O)O[C@@H](C)[C@H](Cc2ccc(Cl)c(Cl)c2)c2ccccc2)c1OC(C)=O [compound 216]	80 to 100	0 to 80	0 to 80	0 to 80
COc1ccnc(C(=O)N[C@@H](C)C(=O)O[C@@H](C)[C@H](Cc2ccc(Cl)c(Cl)c2)c2ccccc2)c1OCOC(C)=O [compound 218]	80 to 100	0 to 80	0 to 80	0 to 80

Structure (SMILES)	pest or weed control at 121.5 g/ha (Zymoseptoria tritici; [1]) [%]	pest or weed control at 121.5 g/ha (Zymoseptoria tritici; [2]) [%]	pest or weed control at 121.5 g/ha (Puccinia triticina; [3]) [%]	pest or weed control at 121.5 g/ha (Puccinia triticina; [4]) [%]
COc1ccnc(C(=O)N[C@@H](C)C(=O)O[C@@H](C)[C@H](Cc2ccc(Cl)c(Cl)c2)c2ccccc2)c1OCOC(=O)C(C)C [compound 219]	0 to 80	0 to 80	0 to 80	0 to 80
COc1ccnc(C(=O)N[C@@H](C)C(=O)O[C@@H](C)[C@H](Cc2ccc(C)cc2)c2ccccc2)c1OC(C)=O [compound 220]	80 to 100	80 to 100	0 to 80	0 to 80
COc1ccnc(C(=O)N[C@@H](C)C(=O)O[C@@H](C)[C@H](Cc2ccc(C)cc2)c2ccccc2)c1OCOC(C)=O [compound 221]	80 to 100	80 to 100	80 to 100	0 to 80
COc1ccnc(C(=O)N[C@@H](C)C(=O)O[C@@H](C)[C@H](Cc2ccc(F)cc2)c2ccccc2)c1OCOC(C)=O [compound 222]	80 to 100	80 to 100	80 to 100	
COc1ccnc(C(=O)N[C@@H](C)C(=O)O[C@@H](C)[C@H](Cc2ccc(F)cc2)c2ccccc2)c1OCOC(=O)C(C)C [compound 223]	80 to 100	80 to 100	80 to 100	0 to 80
COc1ccnc(C(=O)N[C@@H](C)C(=O)O[C@@H](C)[C@H](Cc2ccc3ccccc3c2)c2ccccc2)c1OC(C)=O [compound 224]	0 to 80	0 to 80	0 to 80	
COc1ccnc(C(=O)N[C@@H](C)C(=O)O[C@@H](C)[C@H](Cc2ccc3ccccc3c2)c2ccccc2)c1OCOC(C)=O [compound 225]	0 to 80	0 to 80	0 to 80	0 to 80
COc1ccnc(C(=O)N[C@@H](C)C(=O)O[C@@H](C)[C@H](Cc2ccc3ccccc3c2)c2ccccc2)c1OCOC(=O)C(C)C [compound 226]	0 to 80	0 to 80	0 to 80	
COc1ccnc(C(=O)N[C@@H](C)C(=O)O[C@@H](C)[C@@H](COCc2ccccc2)Cc2ccccc2)c1OC(C)=O [compound 227]	80 to 100	0 to 80	0 to 80	0 to 80
COc1ccnc(C(=O)N[C@@H](C)C(=O)O[C@@H](C)[C@@H](COCc2ccccc2)Cc2ccc(F)cc2)c1OC(C)=O [compound 228]	80 to 100	0 to 80	0 to 80	0 to 80
COc1ccnc(C(=O)N[C@@H](C)C(=O)O[C@@H](C)[C@H](Cc2ccc(F)cc2)C(C)(C)OCc2ccccc2)c1OC(C)=O [compound 229]	80 to 100	0 to 80	0 to 80	
COc1ccnc(C(=O)N[C@@H](C)C(=O)O[C@@H](C)[C@H](Cc2ccccc2)C(C)(C)OCc2ccccc2)c1OC(C)=O [compound 230]	80 to 100	80 to 100	80 to 100	0 to 80
COC[C@@H](Cc1ccc(F)cc1)[C@H](C)OC(=O)[C@H](C)NC(=O)c1nccc(OC)c1OC(C)=O [compound 231]	0 to 80	0 to 80	0 to 80	0 to 80
COc1ccnc(C(=O)N[C@@H](C)C(=O)O[C@@H](C)[C@H](Cc2ccc(F)cc2)C(C)(C)OC)c1OC(C)=O [compound 232]	0 to 80	0 to 80	0 to 80	
CCOCC(=O)OCOc1c(OC)ccnc1C(=O)N[C@@H](C)C(=O)O[C@@H](C)[C@@H](COCc1ccccc1)Cc1ccc(F)cc1 [compound 233]	0 to 80	0 to 80	80 to 100	0 to 80
CCOCC(=O)OCOc1c(OC)ccnc1C(=O)N[C@@H](C)C(=O)O[C@@H](C)[C@@H](COCc1ccccc1)Cc1ccccc1 [compound 234]	0 to 80	80 to 100	80 to 100	80 to 100
CCOCC(=O)OCOc1c(OC)ccnc1C(=O)N[C@@H](C)C(=O)O[C@@H](C)[C@H](Cc1ccc(F)cc1)C(C)(C)OCc1ccccc1 [compound 235]	80 to 100	0 to 80	80 to 100	0 to 80
